In series [1] the test system is 3xTg AD mice. The experiment in a line: Multiplex ELISA of Aβ40, Aβ42, p-tau and t-tau in CSF sampled by push-pull microdialysis. As to conditions: Lonafarnib, day 10 of infusion, average across younger (injected with AAV-tau) and older mice, vs vehicle. In kind it is in vivo. On the procedure:
Animals were implanted with microdialysis guide cannulas 2 months following injections. Push-pull microdialysis apparatus and sampling Push-pull microdialysis was conducted as previously described (Bjorkli et al., 2021 supra). A refrigerated fraction collector (CMA 470) was set to 6° C. for the storage of collected CSF in 300 μl low-retention polypropylene plastic vials (Harvard Apparatus, Cambridge, MA, United States). Fluorinated ethylene propylene (FEP) peristaltic tubing (CMA Microdialysis AB, Kista, Sweden) was placed inside each plastic vial for collection and connected to the cassette of the peristaltic roller pump (Reglo ICC Digital). This peristaltic FEP tubing was connected to the outlet side of microdialysis probes (β-irrigated 2 mDa microdialysis probe; CMA 7; CMA Microdialysis AB, Kista, Sweden) with a polyethersulfone 2 mm membrane with tubing adapters bathed in 75% ethanol. FEP tubing (CMA Microdialysis AB, Kista, Sweden) was connected to each microsyringe. The FEP tubing was then connected to the inlet part of the microdialysis probes. Transparent cages were prepared with 1.5 cm of bedding, filled water bottles, and treats. Saline or drugs were loaded inside a gastight microsyringe (CMA Microdialysis AB, Kista, Sweden), which was placed into a syringe pump (CMA 4004). The “dead volume” of the FEP outlet tubing ([…]) was calculated. 100 cm of FEP outlet tubing was used, and therefore the first […] sampled from each animal were discarded. Prior to inserting the microdialysis probes into the guide cannula, the probe was conditioned in 75% ethanol for better recovery of analytes. At the conclusion of microdialyte sampling, the vials of 60 μl CSF were centrifuged and kept at −80° C. until the samples were analyzed with multiplex ELISA.
(§1) In these experiments, a final concentration of 50 mg/kg of Fasudil (10 mM; Selleck Chemicals, Houston, TX, United States) was infused for 14 days in mice and stored at −80° C., whilst a final concentration of 80 mg/kg of Lonafarnib (5 mM; Cayman Chemical, Ann Arbor, MI, United States) was infused for 10 days and stored −20° C. between infusions. […] All dosages in ml were calculated using; dosage (mg)/concentration (mg/ml)=dose×ml) and were infused at a volume of 60 μl at a rate of 1 μl/min using saline as a control vehicle. […]
The MILLIPLEX® MAP human Aβ and tau magnetic bead panel 4-plex ELISA kit (Millipore, Burlington, MA, United States) and the Bio-Plex 200 System instrument (Biorad, Hercules, CA, United States) were used to assess simultaneously the concentrations of Aβ40, Aβ42, total tau (t-tau), and phosphorylated tau at Thr181 (p-tau) in CSF samples. The samples were undiluted and analyzed in duplicates.
(In general: In an ELISA, binding on a coated surface is turned into a signal by an enzyme label.)

For series [2] the following is noted: cited from earlier work.
Series [3] relates to 3xTg AD mice. The experiment in a line: Quantification of amyloid plaques (number, size) in dSub after intraventricular infusions. The note with it: Lonafarnib 80 mg/kg intraventricular, 10 days, 14 months-old 3xTg AD mice. In kind it is in vivo.
Experimental: Mice were administered a lethal dose of sodium pentobarbital (100 mg/ml; Apotekforeningen, Oslo, Norway) and transcardially perfused with Ringer's solution followed by paraformaldehyde (PFA, 4%; Sigma-Aldrich) in 125 mM phosphate buffer (PB). Brains were extracted and fixed for a minimum of 24 h in PFA at 4° C. and transferred to a 2% DMSO solution prepared in PB for 24 h at 4° C. Brains were sectioned coronally at 40 μm on a freezing-sliding microtome (Microm HM430, ThermoFisher Scientific, Waltham, MA, United States).
An incision was made in the non-implanted hemisphere for visualization of the control hemisphere. Immunohistochemical processing was conducted on the tissue. […]
Series [4] has as its system 3xTg AD mice. Put plainly: Quantification of intraneuronal Aβ (Aβ+ neurons) in dSub after drug infusions. In kind it is in vivo. As to conditions: Lonafarnib 80 mg/kg intraventricular, 10 days; young 3xTg AD mice. On the procedure: (§2) In these experiments, a final concentration of 50 mg/kg of Fasudil (10 mM; Selleck Chemicals, Houston, TX, United States) was infused for 14 days in mice and stored at −80° C., whilst a final concentration of 80 mg/kg of Lonafarnib (5 mM; Cayman Chemical, Ann Arbor, MI, United States) was infused for 10 days and stored −20° C. between infusions. […] The same dosages were used during combinatorial infusions of Fasudil and Lonafarnib (administered for a duration of 7 days) in mice (n=4) as the drugs target independent intracellular pathways. All dosages in ml were calculated using; dosage (mg)/concentration (mg/ml)=dose×ml) and were infused at a volume of 60 μl at a rate of 1 μl/min using saline as a control vehicle. […]
Effect size (Cohen's D) was calculated based on initial experiments between animals infused with Fasudil and animals infused with a vehicle, and the resulting effects on intraneuronal Aβ in dSub. Based on each group consisting of n=2 animals, an effect size of 0.75 was calculated (0.8 is considered a large effect size). […] Behavioral performance in the morphed environments of the context-dependent spatial memory task was calculated as follows: dig in square-consistent location=1, dig in circle-consistent location=0, dig in any other location=0.5. […]

The subject of series [5] is 3xTg AD mice. The experiment in a line: LAMP1 immunolabelling in dSub. The series is classed as in vivo. As to conditions: Lonafarnib infused (n=4) vs vehicle (n=8). The text has this:
We immunolabelled for lysosomal associated membrane protein 1 (LAMP1) in 3xTg AD mice.

The subject of a further series is mice. The experiment in a line: Observation of side-effects during intraventricular drug infusions. In kind it is in vivo. As to conditions: intraventricular infusion: 50 mg/kg Fasudil for 14 days; 80 mg/kg Lonafarnib for 10 days. On the procedure:
Fasudil and Lonafarnib have previously been delivered using DMSO, which can damage the BBB and mitochondria as well as cause apoptosis. […] Previous research has shown that ˜98% of all small molecules are not transported across the BBB, whilst other research has shown poor drug transport from CSF to the brain. Taking drug transport across the BBB, and from CSF into the brain parenchyma into consideration, dosages of both 25, 50 and 80 mg/kg were administered in initial pilot experiments.
as §2

For series [6], the system named is 3xTg AD mice injected with AAV-tau. The experiment in a line: Quantification of tau+ neurons in LEC layer II after AAV-tau injection and intraventricular infusion. The series is classed as in vivo. As to conditions: Lonafarnib 80 mg/kg intraventricular, 10 days; 6 months-old 3xTg AD mice; n.s. On the procedure:
Mice were treated identically to microdialysis guide implantation surgeries, up until deriving stereotaxic coordinates. To target LEC layer II, a craniotomy was made at 0.5 mm anterior to lambda and ˜4 mm lateral (dependent on animal weight) to the midline. A Hamilton microsyringe (Neuros 32-gauge syringe, 5 μl, Hamilton company, Nevada, United States) was lowered vertically into the brain to a depth ˜3.6 mm (dependent on animal weight) from the surface, and 300-1,500 nl of viruses was injected using a microinjector (Nanoliter 2010, World Precision Instruments Inc., United States). We injected the adeno-associated virus (AAV)8 GFP-2a-P301 Ltau (with the chicken beta actin [CBA] promoter; hereafter referred to as AAV-tau). In AAV-tau the short 2A peptide cleaves GFP and human tau during translation at the ribosome. […]
as §1

Regarding `NC(=O)N1CCC(CC(=O)N2CCC([C@H]3c4ncc(Br)cc4CCc4cc(Cl)cc(Br)c43)CC2)CC1` [Lonafarnib, 4-(2-{4-[(11R)-3,10-dibromo-8-chloro-6,11-dihydro-5H-benzo[5,6]cyclohepta[1,2-b]pyridin-11-yl]piperidin-1-yl}-2-oxoethyl)piperidine-1-carboxamide], in the series on 3xTg AD mice [1] (n.s.), the “CSF AB42 levels” value is reported as “moderately reduced” and the CSF p-tau levels entry is “moderately reduced”. Also, in the series with 3xTg AD mice [1] (p<0.01), the “CSF Aβ40 levels” value was “effectively reduced” and the CSF t-tau levels result is given as “effectively reduced”. Further, in series [2], the “solubility in aqueous buffers” value was “sparingly soluble”. Also, the “size of amyloid plaques in dSub compared to vehicle” value in the series on 3xTg AD mice [3] (n.s.) is listed as “moderately increased”. Also, the “number of dense-core amyloid plaques (overlapping with MC1 immunolabelling) in dSub compared to vehicle infused mice” value with 3xTg AD mice [3] (p=0.0017) was “effectively reduced”. In the series on 3xTg AD mice [4], the “number of Aβ+ neurons in dSub” value is “did not affect”. Further, the “LAMP1+ neurons in dSub compared to vehicle infused mice” value in the series on 3xTg AD mice [5] is listed as “more prominent”. Also, the observable side-effects result with mice was “no observable side-effects”. For the same compound, the “number of tau+ neurons in LEC following injection of AAV-tau” value in series [6] is on record as “moderately reduced”.
